Assay results as given in PMC10518255, “A first-in-class pan-lysyl oxidase inhibitor impairs stromal remodeling and enhances gemcitabine response and survival in pancreatic cancer” (Nature Cancer, 2023).

Columns and labels:
SSAO = biological target: T1, SSAO (Homo sapiens, UniProt Q16853); assay: Substrate turnover by H2O2 release, amplex red coupled fluorometric activity assay (Extended Data Fig. 3a); assay type: biochemical
T1 sequence (Q16853 1-763): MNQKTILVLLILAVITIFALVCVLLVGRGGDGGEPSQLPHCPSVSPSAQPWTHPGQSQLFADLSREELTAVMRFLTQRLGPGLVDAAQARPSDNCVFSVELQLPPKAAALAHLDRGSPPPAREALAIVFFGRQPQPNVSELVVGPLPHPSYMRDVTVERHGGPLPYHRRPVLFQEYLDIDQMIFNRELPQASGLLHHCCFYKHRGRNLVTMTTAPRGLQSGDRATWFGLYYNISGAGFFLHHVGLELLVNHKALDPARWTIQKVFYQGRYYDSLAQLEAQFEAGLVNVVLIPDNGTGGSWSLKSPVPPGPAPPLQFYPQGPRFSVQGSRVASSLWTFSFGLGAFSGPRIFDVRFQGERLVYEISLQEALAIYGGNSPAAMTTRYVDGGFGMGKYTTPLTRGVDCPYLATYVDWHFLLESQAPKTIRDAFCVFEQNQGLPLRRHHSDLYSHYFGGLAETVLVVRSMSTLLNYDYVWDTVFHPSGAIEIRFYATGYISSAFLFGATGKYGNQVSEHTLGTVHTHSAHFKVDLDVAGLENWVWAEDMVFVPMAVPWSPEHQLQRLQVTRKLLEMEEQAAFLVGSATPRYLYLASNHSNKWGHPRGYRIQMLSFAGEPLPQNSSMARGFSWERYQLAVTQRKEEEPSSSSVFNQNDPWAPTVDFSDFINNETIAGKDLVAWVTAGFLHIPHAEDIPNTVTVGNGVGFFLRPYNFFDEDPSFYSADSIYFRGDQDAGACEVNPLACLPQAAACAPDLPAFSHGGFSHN
Source text: (§1) Specifically, BAPN is oxidized by diamine oxidase (DAO) and semicarbazide-sensitive amine oxidase (SSAO)/vascular adhesion protein 1 (VAP-1) in the vasculature (Extended Data Fig. 3a), which releases hydrogen […] (H2O2) and aldehyde in humans leading to toxicity.
(§2) Data presented as mean values +/− SD. f. […] Data presented as mean values +/− SD. […] Data presented as mean values +/− SD. […] Data presented as mean values +/− SD. Ordinary one-way ANOVA for multiple comparison test performed. Source data

DAO = biological target: T2, DAO (Homo sapiens, UniProt P19801); assay: as above; assay type: biochemical
T2 sequence (P19801 20-751): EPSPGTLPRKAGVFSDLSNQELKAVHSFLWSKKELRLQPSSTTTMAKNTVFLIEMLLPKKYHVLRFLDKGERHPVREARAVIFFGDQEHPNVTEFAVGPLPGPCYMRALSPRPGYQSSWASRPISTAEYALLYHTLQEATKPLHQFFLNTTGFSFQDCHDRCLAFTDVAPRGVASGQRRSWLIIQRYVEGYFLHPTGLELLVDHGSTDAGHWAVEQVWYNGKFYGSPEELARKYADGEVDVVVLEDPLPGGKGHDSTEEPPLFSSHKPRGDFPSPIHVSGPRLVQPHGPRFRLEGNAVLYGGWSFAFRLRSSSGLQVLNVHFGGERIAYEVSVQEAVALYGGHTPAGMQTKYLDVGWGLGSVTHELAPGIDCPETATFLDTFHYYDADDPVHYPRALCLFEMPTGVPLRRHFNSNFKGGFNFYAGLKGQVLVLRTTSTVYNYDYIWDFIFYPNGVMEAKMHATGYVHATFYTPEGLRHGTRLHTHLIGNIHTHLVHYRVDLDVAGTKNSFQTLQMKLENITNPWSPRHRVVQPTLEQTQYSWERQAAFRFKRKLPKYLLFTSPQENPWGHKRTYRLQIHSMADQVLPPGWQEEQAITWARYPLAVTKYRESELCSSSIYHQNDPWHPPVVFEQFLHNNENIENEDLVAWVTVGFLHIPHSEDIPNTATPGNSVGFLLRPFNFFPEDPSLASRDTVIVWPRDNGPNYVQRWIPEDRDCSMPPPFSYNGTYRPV
Source text: as §1, §2

[1] = listed as value 30 (unit not given)
[2] = listed as value 60 (unit not given)
[3] = listed as value 300 (unit not given)

Cl.Cl.NC/C=C(\F)CS(=O)(=O)c1cccc2cccnc12.O [PXS-5505, (Z)-3-fluoro-4-(quinolin-8-ylsulfonyl)but-2-en-1-amine dihydrochloride monohydrate]
processing as a substrate by SSAO/VAP-1 (SSAO): not processed as a substrate
Turnover by SSAO as measured by H2O2 release, mean (SSAO; [1]): 1.019
Turnover by SSAO as measured by H2O2 release, mean (SSAO; [2]): 1.0116
Turnover by SSAO as measured by H2O2 release, mean (SSAO; [3]): 1.1921
processing as a substrate by DAO (DAO): not processed as a substrate
Turnover by DAO as measured by H2O2 release, mean (DAO; [1]): 0.9677
Turnover by DAO as measured by H2O2 release, mean (DAO; [2]): 0.9315
Turnover by DAO as measured by H2O2 release, mean (DAO; [3]): 1.1475
